Source: BindingDB's records for doi:10.1021/jm0701019 (Abbott Laboratories, 2007)

These compounds were tested against T1, RAC-alpha serine/threonine-protein kinase [139-480,S378A,S381A,T450D,S473D] (Homo sapiens, UniProt P31749, S378A/S381A/S473D/T450D) (assay: Akt Kinase Assay). Conditions: not given.
T1 construct: 139-480
T1 sequence (P31749 139-480 S378A/S381A/T450D/S473D): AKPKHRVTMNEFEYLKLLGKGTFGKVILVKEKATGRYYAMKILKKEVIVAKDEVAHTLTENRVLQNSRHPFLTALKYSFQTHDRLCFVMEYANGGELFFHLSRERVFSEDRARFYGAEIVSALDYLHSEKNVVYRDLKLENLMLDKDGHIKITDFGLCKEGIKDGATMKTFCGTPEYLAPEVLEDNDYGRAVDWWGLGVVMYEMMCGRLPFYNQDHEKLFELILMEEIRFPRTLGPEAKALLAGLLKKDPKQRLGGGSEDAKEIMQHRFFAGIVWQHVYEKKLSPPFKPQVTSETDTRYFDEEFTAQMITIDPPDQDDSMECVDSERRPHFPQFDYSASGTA
Experimental: (§1) The kinase assay uses His-Akt1 and a biotinylated peptide as substrate. The biotinylated peptides were immobilized on streptavidin-coated FLASH plates. After reaction, the 33P-phosphopeptide captured on the FLASH plates was measured with a TopCount Packard Instruments […] (Packard Instruments, Boston, MA).
Compound Cc1n[nH]c2ccc(-c3cncc(OC[C@@H](N)Cc4ccc(Br)cc4)c3)cc12 [5-{5-[(2S)-2-amino-3-(4-bromophenyl)propoxy]pyridin-3-yl}-3-methyl-1H-indazole] has an IC50 of 5 nM. Compound Cc1n[nH]c2ccc(-c3cncc(OC[C@@H](N)Cc4cccc(Br)c4)c3)cc12 [(2S)-1-(3-bromophenyl)-3-{[5-(3-methyl-1H-indazol-5-yl)pyridin-3-yl]oxy}propan-2-amine] has an IC50 of 2.1 nM. With Cc1n[nH]c2ccc(-c3cncc(OC[C@@H](N)Cc4ccc(F)c(Cl)c4)c3)cc12 [(2S)-1-(3-chloro-4-fluorophenyl)-3-{[5-(3-methyl-1H-indazol-5-yl)pyridin-3-yl]oxy}propan-2-amine] the IC50 was 3.1 nM. For Cc1n[nH]c2ccc(-c3cncc(OC[C@@H](N)Cc4cccc(Cl)c4)c3)cc12 [(2S)-1-(3-chlorophenyl)-3-{[5-(3-methyl-1H-indazol-5-yl)pyridin-3-yl]oxy}propan-2-amine], the IC50 was 5.9 nM. Work on Cc1cc(C[C@H](N)COc2cncc(-c3ccc4[nH]nc(C)c4c3)c2)ccc1F [(2S)-1-(3-methyl-4-fluorophenyl)-3-{[5-(3-methyl-1H-indazol-5-yl)pyridin-3-yl]oxy}propan-2-amine] yielded an IC50 of 11 nM. Compound Cc1n[nH]c2ccc(-c3cncc(OC[C@@H](N)Cc4ccc(Cl)cc4)c3)cc12 [(2S)-1-(4-chlorophenyl)-3-{[5-(3-methyl-1H-indazol-5-yl)pyridin-3-yl]oxy}propan-2-amine] has an IC50 of 11 nM. In the case of COc1ccc(F)cc1C[C@H](N)COc1cncc(-c2ccc3[nH]nc(C)c3c2)c1 [(2S)-1-(5-fluoro-2-methoxyphenyl)-3-{[5-(3-methyl-1H-indazol-5-yl)pyridin-3-yl]oxy}propan-2-amine], the IC50 is reported as 7.7 nM. With Cc1n[nH]c2ccc(-c3cncc(OC[C@@H](N)Cc4cc(F)cc(C(F)(F)F)c4)c3)cc12 [(2S)-1-[5-fluoro-3-(trifluoromethyl)phenyl]-3-{[5-(3-methyl-1H-indazol-5-yl)pyridin-3-yl]oxy}propan-2-amine] the IC50 was 13.3 nM. Work on N[C@H](COc1cncc(-c2cc3cn[nH]c3cn2)c1)Cc1cccc(C(F)(F)F)c1 [(2S)-1-{[5-(1H-pyrazolo[3,4-c]pyridin-5-yl)pyridin-3-yl]oxy}-3-[3-(trifluoromethyl)phenyl]propan-2-amine] yielded an IC50 of 7.2 nM. In the case of N[C@H](COc1cncc(-c2cc3c(Cl)n[nH]c3cn2)c1)Cc1cccc(C(F)(F)F)c1 [(2S)-1-{[5-(3-chloro-1H-pyrazolo[3,4-c]pyridin-5-yl)pyridin-3-yl]oxy}-3-[3-(trifluoromethyl)phenyl]propan-2-amine], the IC50 is reported as 2.9 nM. Cc1n[nH]c2ccc(-c3cncc(OC[C@@H](N)Cc4cccc(C(F)(F)F)c4)c3)cc12 [(2S)-1-{[5-(3-methyl-1H-indazol-5-yl)pyridin-3-yl]oxy}-3-[3-(trifluoromethyl)phenyl]propan-2-amine] showed an IC50 of 1.2 nM. Cc1n[nH]c2ccc(-c3cncc(OC[C@@H](N)Cc4ccc(OC(F)(F)F)cc4)c3)cc12 [(2S)-1-{[5-(3-methyl-1H-indazol-5-yl)pyridin-3-yl]oxy}-3-[4-(trifluoromethoxy)phenyl]propan-2-amine] showed an IC50 of 20.3 nM. Compound Cc1n[nH]c2ccc(-c3cncc(OC[C@@H](N)Cc4ccc(C(F)(F)F)cc4)c3)cc12 [(2S)-1-{[5-(3-methyl-1H-indazol-5-yl)pyridin-3-yl]oxy}-3-[4-(trifluoromethyl)phenyl]propan-2-amine] has an IC50 of 18 nM.

Same assay, conditions: pH 7.5; 22 °C
Cc1n[nH]c2ccc(-c3cncc(OC[C@@H](N)Cc4c[nH]c5ccccc45)c3)cc12 [5-{5-[(2S)-2-amino-3-(1H-indol-3-yl)propoxy]pyridin-3-yl}-3-methyl-1H-indazole] gave an IC50 of 0.16 nM. N[C@H](COc1cncc(-c2ccc3c(c2)/C(=C\c2ccco2)C(=O)N3)c1)Cc1ccccc1 [(3E)-5-{5-[(2S)-2-amino-3-phenylpropoxy]pyridin-3-yl}-3-(furan-2-ylmethylidene)-2,3-dihydro-1H-indol-2-one] was tested, and the IC50 was 1.4 nM. For N[C@H](COc1cncc(-c2ccc3c(c2)/C(=C/c2ccc[nH]2)C(=O)N3)c1)Cc1ccccc1 [(3Z)-5-{5-[(2S)-2-amino-3-phenylpropoxy]pyridin-3-yl}-3-(1H-pyrrol-2-ylmethylidene)-2,3-dihydro-1H-indol-2-one], the IC50 was 16 nM.

The compounds below were run against cAMP-dependent protein kinase catalytic subunit alpha (Bos taurus, UniProt P00517) (assay: PKA/PKC Kinase Assay). Conditions: not given.
Experimental: as §1, with “purified recombinant enzyme” for “His-Akt1”, “MA). IC50s were calculated using the sigmoidal curve fit with the Assay Explorer software (MDL, Los Angeles, CA).” for “MA).”
In the case of Cc1n[nH]c2ccc(-c3cncc(OC[C@@H](N)Cc4ccc(Br)cc4)c3)cc12 [5-{5-[(2S)-2-amino-3-(4-bromophenyl)propoxy]pyridin-3-yl}-3-methyl-1H-indazole], the IC50 is reported as 15 nM. Cc1n[nH]c2ccc(-c3cncc(OC[C@@H](N)Cc4cccc(OCC5CCCCC5)c4)c3)cc12 [5-{5-[(2S)-2-amino-3-[3-(cyclohexylmethoxy)phenyl]propoxy]pyridin-3-yl}-3-methyl-1H-indazole] gave an IC50 greater than 3000 nM.

Same assay, conditions: pH 7.5; 22 °C
For Cc1n[nH]c2ccc(-c3cncc(OC[C@@H](N)Cc4c[nH]c5ccccc45)c3)cc12 [5-{5-[(2S)-2-amino-3-(1H-indol-3-yl)propoxy]pyridin-3-yl}-3-methyl-1H-indazole], the IC50 was 6 nM. Cc1n[nH]c2ccc(-c3cncc(OC[C@@H](N)Cc4ccccc4)c3)cc12 [Biochemistry 469551 Compound 11] was tested, and the IC50 was 16 nM.
